Measured values as given in patent US9951040B2, “1,3,5 -triazine based PI3K inhibitors as anticancer agents and a process for the preparation thereof” (Council of Scientific and Industrial Research, priority 2014, dated 2018).
Where two headings read alike, the source gives them in different places.

What was measured:
MCF-7 Cell line = assay: MTT cell proliferation assay, MCF-7; type: cell-based; conditions: Homo sapiens, MCF7, 120 h, 5 days
Procedure: (§1) Human breast cancer cell lines MDAMB231, MFC-7 and human prostate carcinoma cell line PC-3 were obtained from European Collection of Cell Cultures (ECACC). Cells were grown in […] medium supplemented with 10% fetal bovine serum (FBS), penicillin (100 units/ml), streptomycin (100 μg/ml), L-glutamine (0.3 mg/ml), sodium pyruvate ([…]), and NaHCO3 (2 mg/ml). Cells were grown in CO2 incubator (Thermocon Electron Corporation, USA) at 37° C. in an atmosphere of 95% air and 5% CO2 with 98% humidity. Different molecules were dissolved in DMSO and were delivered to cell cultures in complete medium.
(§2) MTT assay was done to determine the viability of the cells and was done as described previously (Kumar et al, 2013). Briefly, 6×10^3 were seeded in 96 well plates and were treated with different concentrations of different molecules for 5 days. 20 μl of MTT dye (2.5 mg/ml) was added 3 h before the termination of the experiment. Formazen crystals were dissolved in 150 μl of DMSO and OD was measured at 570 nm.

PC-3 Cell line = assay: MTT cell proliferation assay, PC-3; type: cell-based; conditions: Homo sapiens, PC-3, 120 h, 5 days
Procedure: as §1, §2

PI3K alpha = PI3K alpha (Homo sapiens, UniProt P42336); assay: PI3K-α assay (ADP-Glo enzyme inhibition); type: biochemical; conditions: at 500 nm
Procedure: Compounds were evaluated for their ability to inhibit class I PI3-kinase enzyme alpha as given below. PI3K-α Assay: PI3K alpha (diluted in 12.5 mM Glycine-NaOH (pH 8.5), 50 mM KCl, 2.5 mM MgCl2, 1 mM DTT, 0.05% CHAPS) is assayed in total volume of 20 ul containing 12.5 mM glycine-NaOH (pH 8.5), 50 mM KCl, 2.5 mM MgCl2, 1 mM DTT, 0.05% CHAPS, 0.01 mM ATP and 0.05 mM diC8 PIP2. The enzyme is assayed for 80 min after which 20 ul of ADP-Glo reagent is added. After a further incubation of 40 min, 40 ul of Kinase Detection Buffer is added. The assays are incubated for 40 min and then read on PerkinElmer Envision for 1 sec/well.

[1] = read-out: In vitro PI3K α % of inhibition
[2] = read-out: inhibition against PI3K alpha

PI3K alpha, sequence (P42336 whole entry, species assumed): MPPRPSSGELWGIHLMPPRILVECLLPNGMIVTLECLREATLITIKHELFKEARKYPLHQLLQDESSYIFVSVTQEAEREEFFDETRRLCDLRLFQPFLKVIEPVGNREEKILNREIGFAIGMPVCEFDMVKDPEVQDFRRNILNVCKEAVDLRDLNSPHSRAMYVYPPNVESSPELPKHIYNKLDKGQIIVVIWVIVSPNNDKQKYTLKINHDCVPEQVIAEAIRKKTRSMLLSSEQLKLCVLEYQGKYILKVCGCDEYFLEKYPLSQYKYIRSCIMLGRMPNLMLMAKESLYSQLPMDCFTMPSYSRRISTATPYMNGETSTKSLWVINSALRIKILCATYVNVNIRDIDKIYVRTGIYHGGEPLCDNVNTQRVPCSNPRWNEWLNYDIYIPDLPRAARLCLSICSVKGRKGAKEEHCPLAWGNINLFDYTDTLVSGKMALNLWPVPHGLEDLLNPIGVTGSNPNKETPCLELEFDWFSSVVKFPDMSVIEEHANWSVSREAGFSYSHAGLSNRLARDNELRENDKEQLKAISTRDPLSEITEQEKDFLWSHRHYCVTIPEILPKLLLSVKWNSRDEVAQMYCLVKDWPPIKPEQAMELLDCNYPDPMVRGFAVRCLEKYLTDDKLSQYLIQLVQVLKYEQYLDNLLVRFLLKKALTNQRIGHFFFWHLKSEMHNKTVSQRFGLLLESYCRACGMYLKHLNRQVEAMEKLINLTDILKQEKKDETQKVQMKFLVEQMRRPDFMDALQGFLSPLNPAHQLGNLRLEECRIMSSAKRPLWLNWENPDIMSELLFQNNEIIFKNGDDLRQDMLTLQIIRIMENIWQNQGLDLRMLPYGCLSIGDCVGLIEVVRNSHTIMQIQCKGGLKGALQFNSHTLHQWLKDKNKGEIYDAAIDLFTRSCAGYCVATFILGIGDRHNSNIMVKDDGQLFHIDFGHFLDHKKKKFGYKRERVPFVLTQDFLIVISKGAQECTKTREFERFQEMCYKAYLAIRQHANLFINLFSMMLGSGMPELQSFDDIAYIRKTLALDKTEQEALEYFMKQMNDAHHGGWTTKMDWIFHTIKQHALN
PI3K alpha, sequence (P27986 whole entry partner, species assumed): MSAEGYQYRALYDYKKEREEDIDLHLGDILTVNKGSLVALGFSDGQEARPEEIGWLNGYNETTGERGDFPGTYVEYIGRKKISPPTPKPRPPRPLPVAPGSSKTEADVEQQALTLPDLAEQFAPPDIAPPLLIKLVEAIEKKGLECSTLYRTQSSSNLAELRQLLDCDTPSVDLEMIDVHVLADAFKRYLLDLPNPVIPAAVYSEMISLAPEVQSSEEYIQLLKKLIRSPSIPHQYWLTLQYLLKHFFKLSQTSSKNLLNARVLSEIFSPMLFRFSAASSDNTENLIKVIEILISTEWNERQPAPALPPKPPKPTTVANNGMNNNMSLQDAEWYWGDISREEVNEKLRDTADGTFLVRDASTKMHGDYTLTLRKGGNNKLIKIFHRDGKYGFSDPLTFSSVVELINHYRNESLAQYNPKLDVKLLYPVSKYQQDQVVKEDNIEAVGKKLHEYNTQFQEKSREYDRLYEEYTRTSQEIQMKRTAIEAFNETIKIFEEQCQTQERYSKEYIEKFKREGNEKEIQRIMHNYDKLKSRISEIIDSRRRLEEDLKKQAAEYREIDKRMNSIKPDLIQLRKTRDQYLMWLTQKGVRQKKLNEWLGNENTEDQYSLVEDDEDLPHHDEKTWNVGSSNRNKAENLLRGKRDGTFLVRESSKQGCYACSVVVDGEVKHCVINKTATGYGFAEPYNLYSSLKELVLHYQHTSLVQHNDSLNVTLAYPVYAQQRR

Row | inhibition at 0.5 µM (PI3K alpha; [1]) [%] | inhibition at 0.5 µM (PI3K alpha; [2]) [%] | SMILES | inhibition at 10 µM (MCF-7 Cell line) [%] | inhibition at 10 µM (PC-3 Cell line) [%]
1 | > 70 | > 70 | FC(F)c1nc2ccccc2n1-c1nc(N2CCOCC2)nc(N2CCC(Nc3ccc(Br)cc3)CC2)n1 [1B25, N-(4-bromophenyl)-1-(4-(2-(difluoromethyl)-1H-benzo[d]imidazol-1-yl)-6-morpholino-1,3,5-triazin-2-yl)piperidin-4-amine] | > 50 | 30 to 50
2 | > 70 | > 70 | COc1ccccc1NC1CCN(c2nc(N3CCOCC3)nc(-n3c(C(F)F)nc4ccccc43)n2)CC1 [1B28, 1-(4-(2-(difluoromethyl)-1H-benzo[d]imidazol-1-yl)-6-morpholino-1,3,5-triazin-2-yl)-N-(2-methoxyphenyl)piperidin-4-amine] | > 50 | 30 to 50
3 | 50 to 70 | – | FC(F)c1nc2ccccc2n1-c1nc(N2CCOCC2)nc(N2CCC(Oc3cccc(Cl)c3)CC2)n1 [1B6, 4-(4-(4-(3-chlorophenoxy)piperidin-1-yl)-6-(2-(difluoromethyl)-1H-benzo[d]imidazol-1-yl)-1,3,5-triazin-2-yl)morpholine] | > 50 | 30 to 50
4 | > 70 | > 70 | FC(F)c1nc2ccccc2n1-c1nc(N2CCOCC2)nc(N2CCC(Nc3ccc(OC(F)(F)F)cc3)CC2)n1 [1B23, 1-(4-(2-(difluoromethyl)-1H-benzo[d]imidazol-1-yl)-6-morpholino-1,3,5-triazin-2-yl)-N-(4-(trifluoromethoxy)phenyl)piperidin-4-amine] | 30 to 50 | 30 to 50
5 | > 70 | > 70 | FC(F)c1nc2ccccc2n1-c1nc(N2CCOCC2)nc(N2CCC(Oc3ccccc3C(F)(F)F)CC2)n1 [1B4, 4-(4-(2-(difluoromethyl)-1H-benzo[d]imidazol-1-yl)-6-(4-(2-(trifluoromethyl)phenoxy)piperidin-1-yl)-1,3,5-triazin-2-yl)morpholine] | – | –
6 | 50 to 70 | – | Fc1ccc(N(c2ccc(Cl)cc2)C2CCN(c3nc(N4CCOCC4)nc(-n4c(C(F)F)nc5ccccc54)n3)CC2)cc1 [1B44, N-(4-chlorophenyl)-1-(4-(2-(difluoromethyl)-1H-benzo[d]imidazol-1-yl)-6-morpholino-1,3,5-triazin-2-yl)-N-(4-fluorophenyl)piperidin-4-amine] | – | –
7 | 50 to 70 | – | FC(F)(F)c1ccccc1OC1CCN(c2nc(N3CCOCC3)nc(-n3cnc4ccccc43)n2)CC1 [1B20, 4-(4-(1H-benzo[d]imidazol-1-yl)-6-(4-(2-(trifluoromethyl)phenoxy)piperidin-1-yl)-1,3,5-triazin-2-yl)morpholine] | – | –
8 | 50 to 70 | – | FC(F)c1nc2ccccc2n1-c1nc(N2CCOCC2)nc(N2CCC(Nc3ccc(C(F)(F)F)cc3)CC2)n1 [1B22, 1-(4-(2-(difluoromethyl)-1H-benzo[d]imidazol-1-yl)-6-morpholino-1,3,5-triazin-2-yl)-N-(4-(trifluoromethyl)phenyl)piperidin-4-amine] | 30 to 50 | 30 to 50
9 | 50 to 70 | – | FC(F)c1cc2ccccc2n1-c1nc(N2CCOCC2)nc(N2CCC(Nc3ccc(Cl)cc3)CC2)n1 [1B50, N-(4-chlorophenyl)-1-(4-(2-(difluoromethyl)-1H-indol-1-yl)-6-morpholino-1,3,5-triazin-2-yl)piperidin-4-amine] | – | –
10 | 50 to 70 | – | c1ccc(OC2CCN(c3nc(N4CCOCC4)nc(N(c4ccccc4)c4ccccc4)n3)CC2)cc1 [1A18, 4-morpholino-6-(4-phenoxypiperidin-1-yl)-N,N-diphenyl-1,3,5-triazin-2-amine] | – | –
11 | > 70 | > 70 | FC(F)(F)c1ccc(OC2CCN(c3nc(N4CCOCC4)nc(-n4cnc5ccccc54)n3)CC2)cc1 [1B15, 4-(4-(1H-benzo[d]imidazol-1-yl)-6-(4-(4-(trifluoromethyl)phenoxy)piperidin-1-yl)-1,3,5-triazin-2-yl)morpholine] | – | –
12 | > 70 | > 70 | Clc1ccccc1OC1CCN(c2nc(N3CCOCC3)nc(-n3cnc4ccccc43)n2)CC1 [1B19, 4-(4-(1H-benzo[d]imidazol-1-yl)-6-(4-(2-chlorophenoxy)piperidin-1yl)-1,3,5-triazin-2-yl)morpholine] | – | –
13 | 50 to 70 | – | Cc1ccc(OC2CCN(c3nc(N4CCOCC4)nc(-n4cnc5cc(F)ccc54)n3)CC2)cc1 [1B13, 4-(4-(5-fluoro-1H-benzo[d]imidazol-1-yl)-6-(4-(p-tolyloxy)piperidin-1-yl)-1,3,5-triazin-2-yl)morpholine] | – | –
14 | 50 to 70 | – | Fc1ccccc1OC1CCN(c2nc(N3CCOCC3)nc(-n3c(C(F)F)nc4ccccc43)n2)CC1 [1B9, 4-(4-(2-(difluoromethyl)-1H-benzo[d]imidazol-1-yl)-6-(4-(2-fluorophenoxy)piperidin-1-yl)-1,3,5-triazin-2-yl)morpholine] | – | –
15 | > 70 | > 70 | CN(c1ccc(F)cc1)c1nc(N2CCOCC2)nc(N2CCC(Oc3ccc(F)cc3)CC2)n1 [1A3, 4-(4-(4-fluorophenoxy)piperidin-1-yl)-N-(4-fluorophenyl)-N-methyl-6-morpholino-1,3,5-triazin-2-amine] | – | –
16 | 50 to 70 | – | O=C(N(c1ccccc1)c1nc(N2CCOCC2)nc(N2CCC(Oc3ccc(C(F)(F)F)cc3)CC2)n1)C(F)(F)F [1A7, 2,2,2-trifluoro-N-(4-morpholino-6-(4-(4-(trifluoromethyl)phenoxy)piperidin-1-yl)-1,3,5-triazin-2-yl)-N-phenylacetamide] | – | –
17 | 50 to 70 | – | Fc1ccc2c(c1)ncn2-c1nc(N2CCOCC2)nc(N2CCC(Oc3ccc(C(F)(F)F)cc3)CC2)n1 [1B14, 4-(4-(5-fluoro-1H-benzo[d]imidazol-1-yl)-6-(4-(4-(trifluoromethyl)phenoxy)piperidin-1-yl)-1,3,5-triazin-2-yl)morpholine] | – | –
18 | 50 to 70 | – | Fc1ccc(NC2CCN(c3nc(N4CCOCC4)nc(-n4c(C(F)F)nc5ccccc54)n3)CC2)cc1 [1B21, 1-(4-(2-(difluoromethyl)-1H-benzo[d]imidazol-1-yl)-6-morpholino-1,3,5-triazin-2-yl)-N-(4-fluorophenyl)piperidin-4-amine] | – | –
19 | 50 to 70 | – | CN(c1ccccc1)c1nc(N2CCOCC2)nc(N2CCC(Oc3ccccc3F)CC2)n1 [1A2, 4-(4-(2-fluorophenoxy)piperidin-1-yl)-N-methyl-6-morpholino-N-phenyl-1,3,5-triazin-2-amine] | – | –
20 | 50 to 70 | – | FC(F)(F)Oc1ccc(OC2CCN(c3nc(N4CCOCC4)nc(-n4cnc5ccccc54)n3)CC2)cc1 [1B16, 4-(4-(1H-benzo[d]imidazol-1-yl)-6-(4-(4-(trifluoromethoxy)phenoxy)piperidin-1-yl)-1,3,5-triazin-2-yl)morpholine] | – | –
21 | 50 to 70 | – | Cc1ccc(NC2CCN(c3nc(N4CCOCC4)nc(-n4cnc5cc(F)ccc54)n3)CC2)cc1 [1B33, 1-(4-(5-fluoro-1H-benzo[d]imidazol-1-yl)-6-morpholino-1,3,5-triazin-2-yl)-N-(p-tolyl)piperidin-4-amine] | – | –
22 | 50 to 70 | – | Fc1ccc(N(c2ccncc2C(F)(F)F)C2CCN(c3nc(N4CCOCC4)nc(-n4c(C(F)F)nc5ccccc54)n3)CC2)cc1 [1B45, N-(1-(4-(2-(difluoromethyl)-1H-benzo[d]imidazol-1-yl)-6-morpholino-1,3,5-triazin-2-yl)piperidin-4-yl)-N-(4-fluorophenyl)-3-(trifluoromethyl)pyridin-4-amine] | – | –
23 | > 70 | > 70 | Fc1cccc(OC2CCN(c3nc(N4CCOCC4)nc(-n4c(C(F)F)nc5ccccc54)n3)CC2)c1 [1B8, 4-(4-(2-(difluoromethyl)-1H-benzo[d]imidazol-1-yl)-6-(4-(3-fluorophenoxy)piperidin-1-yl)-1,3,5-triazin-2-yl)morpholine] | – | –
24 | > 70 | > 70 | Cc1ccc(OC2CCN(c3nc(N4CCOCC4)nc(N(C(=O)C(F)(F)F)c4ccccc4)n3)CC2)cc1 [1A8, 2,2,2-trifluoro-N-(4-morpholino-6-(4-(p-tolyloxy)piperidin-1-yl)-1,3,5-triazin-2-yl)-N-phenylacetamide] | – | –
25 | 50 to 70 | – | Fc1ccc(OC2CCN(c3nc(N4CCOCC4)nc(-n4cnc5ccccc54)n3)CC2)cc1 [1B17, 4-(4-(1H-benzo[d]imidazol-1-yl)-6-(4-(4-fluorophenoxy)piperidin-1-yl)-1,3,5-triazin-2-yl)morpholine] | – | –
26 | 50 to 70 | – | CN(C(=O)C(F)(F)F)c1nc(N2CCOCC2)nc(N2CCC(Oc3ccccc3)CC2)n1 [1A11, 2,2,2-trifluoro-N-methyl-N-(4-morpholino-6-(4-phenoxypiperidin-1-yl)-1,3,5-triazin-2-yl)acetamide] | – | –
